Laboratory results: patent publication US20220119354A1, “DIAMINO-SUBSTITUTED PYRIDINES AND PYRIMIDINES AS HERBICIDES” (FMC Corporation, priority 2019, published 2022)

How the values were obtained:
Assay type in all cases: in vivo
[1] = system: barnyardgrass (Echinochloa crus-galli); experiment: Test A postemergence, barnyardgrass; conditions: 0 to 100 scale
Outline: (§1)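 Greenhouse test; plants at one- to two-leaf stage (2–10 cm) sprayed postemergence with compound in non-phytotoxic solvent/surfactant mix, or soil sprayed preemergence after seeding in loam–sand blend. Injury rated visually versus untreated controls after about 10 d, 0 (no effect) to 100 (complete control).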

[2] = system: barnyardgrass (Echinochloa crus-galli); experiment: Test B flooded paddy test, barnyardgrass; conditions: Flood, 250 g ai/ha, applied to paddy water, 2-leaf stage, visual evaluation after 13 to 15 d
Outline: (§2)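 Each response is a visual 0–100 rating made against untreated controls, where 0 is no effect and 100 is complete control; a dash marks no result. Compound was dosed into 3 cm paddy water over 2-leaf plants, assessed after 13 to 15 d.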

[3] = system: kochia (Kochia scoparia); experiment: Test A postemergence, kochia; conditions: 0 to 100 scale
Outline: as §1

[4] = system: ryegrass, Italian (Lolium multiflorum); experiment: Test A postemergence, Italian ryegrass; conditions: 0 to 100 scale
Outline: as §1

[5] = system: galium (catchweed bedstraw, Galium aparine); experiment: Test A postemergence, galium; conditions: 0 to 100 scale
Outline: as §1

[6] = system: kochia (Kochia scoparia); experiment: Test A preemergence, kochia; conditions: 0 to 100 scale; for Kochia plant response rating: 125 g ai/ha, 0 is no effect, 100 is complete control; for Plant response rating, Kochia: 500 g ai/ha
Outline: as §1

[7] = system: wheat (Triticum aestivum); experiment: Test A postemergence, wheat; conditions: 0 to 100 scale
Outline: as §1

[8] = system: ducksalad (Heteranthera limosa); experiment: Test B flooded paddy test, ducksalad; conditions: Flood, 250 g ai/ha, applied to paddy water, 2-leaf stage, visual evaluation after 13 to 15 d
Outline: as §2

[9] = system: foxtail, giant (Setaria faberii); experiment: Test A preemergence, giant foxtail; conditions: 0 to 100 scale; for Foxtail, Giant plant response rating: 125 g ai/ha, 0 is no effect, 100 is complete control; for Plant response rating, Foxtail, Giant: 500 g ai/ha
Outline: as §1

[10] = system: ryegrass, Italian (Lolium multiflorum); experiment: Test A preemergence, Italian ryegrass; conditions: 0 to 100 scale; for Ryegrass, Italian plant response rating: 125 g ai/ha, 0 is no effect, 100 is complete control; for Plant response rating, Ryegrass, Italian: 500 g ai/ha
Outline: as §1

[11] = system: pigweed (Amaranthus retroflexus); experiment: Test A preemergence, pigweed; conditions: 0 to 100 scale; for Pigweed plant response rating: 125 g ai/ha, 0 is no effect, 100 is complete control; for Plant response rating, Pigweed: 500 g ai/ha
Outline: as §1

[12] = system: blackgrass (Alopecurus myosuroides); experiment: Test A postemergence, blackgrass; conditions: 0 to 100 scale
Outline: as §1

[13] = system: foxtail, giant (Setaria faberii); experiment: Test A postemergence, giant foxtail; conditions: 0 to 100 scale
Outline: as §1

[14] = system: ragweed (common ragweed, Ambrosia elatior); experiment: Test A preemergence, ragweed; conditions: 0 to 100 scale; for Ragweed plant response rating: 125 g ai/ha, 0 is no effect, 100 is complete control; for Plant response rating, Ragweed: 500 g ai/ha
Outline: as §1

[15] = system: barnyardgrass (Echinochloa crus-galli); experiment: Test A preemergence, barnyardgrass; conditions: 0 to 100 scale; for Barnyardgrass plant response rating: 125 g ai/ha, 0 is no effect, 100 is complete control; for Plant response rating, Barnyardgrass: 500 g ai/ha
Outline: as §1

[16] = system: sedge, umbrella (small-flower umbrella sedge, Cyperus difformis); experiment: Test B flooded paddy test, umbrella sedge; conditions: Flood, 250 g ai/ha, applied to paddy water, 2-leaf stage, visual evaluation after 13 to 15 d
Outline: as §2

[17] = system: pigweed (Amaranthus retroflexus); experiment: Test A postemergence, pigweed; conditions: 0 to 100 scale
Outline: as §1

[18] = system: rice (Oryza sativa); experiment: Test B flooded paddy test, rice; conditions: Flood, 250 g ai/ha, applied to paddy water, 2-leaf stage, visual evaluation after 13 to 15 d
Outline: as §2

[19] = system: corn (Zea mays); experiment: Test A postemergence, corn; conditions: 0 to 100 scale
Outline: as §1

[20] = system: ragweed (common ragweed, Ambrosia elatior); experiment: Test A postemergence, ragweed; conditions: 0 to 100 scale
Outline: as §1

CC(COc1cccc(C(F)(F)F)c1)Nc1ncc(C(F)(F)F)c(N)n1 (stereo not drawn) [Compound 34]
30: Plant response rating, Kochia ([3]; 125 g ai/ha) | Plant response rating, Galium ([5]; 125 g ai/ha) | Plant response rating, Ryegrass, Italian [10] | Plant response rating, Blackgrass ([12]; 500 g ai/ha) | Plant response rating, Foxtail, Giant ([13]; 500 g ai/ha)
90: Plant response rating, Foxtail, Giant [9] | Plant response rating, Pigweed [11]
60: Plant response rating, Ryegrass, Italian ([4]; 500 g ai/ha) | Plant response rating, Pigweed ([17]; 500 g ai/ha)
0: Plant response rating, Barnyardgrass ([1]; 125 g ai/ha) | Plant response rating, Barnyardgrass (0 to 100 scale, 0 is no effect, 100 is complete control) [2] | Plant response rating, Ryegrass, Italian ([4]; 125 g ai/ha) | Kochia plant response rating [6] | Plant response rating, Wheat ([7]; 125 g ai/ha) | Plant response rating, Wheat ([7]; 500 g ai/ha) | Plant response rating, Ducksalad (0 to 100 scale, 0 is no effect, 100 is complete control) [8] | Ryegrass, Italian plant response rating [10] | Plant response rating, Blackgrass ([12]; 125 g ai/ha) | Plant response rating, Foxtail, Giant ([13]; 125 g ai/ha) | Plant response rating, Sedge, Umbrella (0 to 100 scale, 0 is no effect, 100 is complete control) [16] | Plant response rating, Pigweed ([17]; 125 g ai/ha) | Plant response rating, Rice (0 to 100 scale, 0 is no effect, 100 is complete control) [18] | Plant response rating, Corn ([19]; 125 g ai/ha) | Plant response rating, Ragweed ([20]; 125 g ai/ha) | Plant response rating, Ragweed ([20]; 500 g ai/ha)
80: Plant response rating, Kochia [6] | Plant response rating, Ragweed [14] | Barnyardgrass plant response rating [15]
100: Plant response rating, Barnyardgrass [15]
50: Foxtail, Giant plant response rating [9]
70: Plant response rating, Kochia ([3]; 500 g ai/ha) | Plant response rating, Galium ([5]; 500 g ai/ha)
10: Pigweed plant response rating [11] | Plant response rating, Corn ([19]; 500 g ai/ha)
20: Plant response rating, Barnyardgrass ([1]; 500 g ai/ha) | Ragweed plant response rating [14]

CC(COc1cc(Cl)cc(Cl)c1)Nc1ncc(C(F)(F)F)c(N)n1 (stereo not drawn) [Compound 35]
20: Plant response rating, Barnyardgrass ([1]; 125 g ai/ha) | Plant response rating, Kochia ([3]; 500 g ai/ha)
50: Plant response rating, Pigweed ([17]; 500 g ai/ha)
30: Plant response rating, Ryegrass, Italian ([4]; 500 g ai/ha)
40: Plant response rating, Ryegrass, Italian ([4]; 125 g ai/ha) | Plant response rating, Kochia [6]
60: Plant response rating, Galium ([5]; 500 g ai/ha)
0: Plant response rating, Barnyardgrass ([1]; 500 g ai/ha) | Plant response rating, Barnyardgrass (0 to 100 scale, 0 is no effect, 100 is complete control) [2] | Plant response rating, Kochia ([3]; 125 g ai/ha) | Plant response rating, Galium ([5]; 125 g ai/ha) | Kochia plant response rating [6] | Plant response rating, Wheat ([7]; 125 g ai/ha) | Plant response rating, Wheat ([7]; 500 g ai/ha) | Plant response rating, Ducksalad (0 to 100 scale, 0 is no effect, 100 is complete control) [8] | Foxtail, Giant plant response rating [9] | Plant response rating, Foxtail, Giant [9] | Ryegrass, Italian plant response rating [10] | Plant response rating, Ryegrass, Italian [10] | Pigweed plant response rating [11] | Plant response rating, Pigweed [11] | Plant response rating, Blackgrass ([12]; 125 g ai/ha) | Plant response rating, Blackgrass ([12]; 500 g ai/ha) | Plant response rating, Foxtail, Giant ([13]; 125 g ai/ha) | Plant response rating, Foxtail, Giant ([13]; 500 g ai/ha) | Ragweed plant response rating [14] | Plant response rating, Ragweed [14] | Barnyardgrass plant response rating [15] | Plant response rating, Barnyardgrass [15] | Plant response rating, Sedge, Umbrella (0 to 100 scale, 0 is no effect, 100 is complete control) [16] | Plant response rating, Pigweed ([17]; 125 g ai/ha) | Plant response rating, Rice (0 to 100 scale, 0 is no effect, 100 is complete control) [18] | Plant response rating, Corn ([19]; 125 g ai/ha) | Plant response rating, Corn ([19]; 500 g ai/ha) | Plant response rating, Ragweed ([20]; 125 g ai/ha) | Plant response rating, Ragweed ([20]; 500 g ai/ha)
